Tests used:
[1] = system: rats with focal cerebral ischemia (MCAO)/reperfusion; assay: Prophylactic administration, cerebral ischemia-reperfusion injury (MCAO/R) in rats; format: in vivo; settings: Mean ± SD, n = 8; for Cerebral infarction rate (%): 3 days before MCAO/R, 24 h after reperfusion; for behavioral score / cerebral water content (%): MCAO/R
Protocol: Experimental methods: SD rats were randomly divided into 6 groups, set as sham group, model control group, positive control drug ozagrel (6 mg/kg) group, and test drug compound 1-1 high (9 mg/kg), medium (3 mg/kg), and low (1 mg/kg) dose group. The administered groups were preadministered by tail vein injection, and the sham and model control groups were given an equal volume of saline, once a day for 3 consecutive days. Ten minutes after the last administration, the rat MCAO/R model was established, and reperfusion was performed 2 h after ischemia. 24 h after MCAO reperfusion, neurobehavioral scores were performed to determine the neurological function of rats; 2,3,5-triphenyltetrazolium chloride (TTC) staining method was used to determine the rate of cerebral infarction and cerebral water content in rats.

[2] = system: mice injected with ellagic acid via the tail vein; assay: Effect on in vivo clotting time in mice (ellagic acid tail vein injection); settings: Mus musculus, iv, 100 mg/kg i.g. for 4 days, ellagic acid i.v. 1 h after last dose, vs model group, read-out: Clotting time prolongation (%)
Protocol: The control and model groups were gavaged with distilled water, and the positive clopidogrel group, and the test substance group were gavaged orally (i.g.) with drug solution in a volume of 0.1 mL/10 g for 4 consecutive days. 1 h after the last administration, all groups were injected with 0.15 mL/10 g of 0.3% ellagic acid solution via tail vein injection except for the blank group which was injected with physiological saline: 0.1 ml/10 g. After 5 min, glass capillaries were used for blood collection through the retro-orbital venous plexus, and the appearance time of coagulation filaments was recorded by glass capillaries at 10-second intervals.
Calculation equation for prolongation of clotting time:
Prolongation of clotting time (%)=[(mean value of clotting time in blank or administered group/mean value of clotting time in model group)−1]×100%

Question: With `CCOC(=O)CCNC(=O)CCNc1cc(=O)n(C)c(=O)n1C` [Compound 1-1] as the compound, how does the “Cerebral infarction rate (%)” value ([1]; 1 mg/kg tail vein) read?
Answer: 25.20 ± 9.71%

Question: And the behavioral score ([1]; 1 mg/kg tail vein)?
Answer: 2.63 ± 0.74

Question: What about the “cerebral water content (%)” value ([1]; 1 mg/kg tail vein) of the same compound?
Answer: 81.81 ± 0.78%

Question: What about the “Cerebral infarction rate (%)” value ([1]; 3 mg/kg tail vein) of the same compound?
Answer: 22.74 ± 9.12%

Question: What about the behavioral score ([1]; 3 mg/kg tail vein) of the same compound?
Answer: 2.00 ± 0.76

Question: And the “cerebral water content (%)” value ([1]; 3 mg/kg tail vein)?
Answer: 81.57 ± 0.87%

Question: What about the “Cerebral infarction rate (%)” value ([1]; 9 mg/kg tail vein) of the same compound?
Answer: 17.22 ± 9.35 %

Question: And the behavioral score ([1]; 9 mg/kg tail vein)?
Answer: 1.50 ± 0.53

Question: What about the “cerebral water content (%)” value ([1]; 9 mg/kg tail vein) of the same compound?
Answer: 80.94 ± 0.92 %

Question: And the change in vivo at 100 mg/kg [2]?
Answer: 43.3%
